Experimental data from PMC11969031, “The homeostasis of β‐alanine is key for Arabidopsis reproductive growth and development” (The Plant Journal, 2025).

Assays:
[1] = target: T1, Col-0-PYD4 (AT3G08860, recombinant) (Arabidopsis thaliana, UniProt Q9SR86); test: coupled NADH assay at […] nm (pyruvate or alanine dehydrogenase); format: biochemical; details: 50 mM Tris pH 8.0, 30°C
T1 construct: first 31 residues (signal peptide) removed; codon-optimised synthetic gene, pET24a, C-terminal His6; E. coli BL21(DE3); Ni-NTA
T1 sequence (Q9SR86 32-481): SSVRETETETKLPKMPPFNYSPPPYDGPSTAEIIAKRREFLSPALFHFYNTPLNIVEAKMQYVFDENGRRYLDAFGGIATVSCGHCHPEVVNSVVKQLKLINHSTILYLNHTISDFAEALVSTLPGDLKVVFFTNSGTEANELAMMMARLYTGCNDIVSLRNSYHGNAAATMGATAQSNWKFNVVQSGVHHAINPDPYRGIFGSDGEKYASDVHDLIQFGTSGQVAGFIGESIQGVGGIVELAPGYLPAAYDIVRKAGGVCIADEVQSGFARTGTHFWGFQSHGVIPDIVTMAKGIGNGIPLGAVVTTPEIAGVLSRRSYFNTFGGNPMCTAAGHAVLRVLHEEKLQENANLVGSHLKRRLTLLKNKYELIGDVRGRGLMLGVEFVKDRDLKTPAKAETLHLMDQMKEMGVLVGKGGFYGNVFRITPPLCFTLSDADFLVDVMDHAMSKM

[2] = target: T2, AGT2_weak (AT4G39660, recombinant) (Arabidopsis thaliana, UniProt Q940M2); test: coupled NADH assay at […] nm (pyruvate dehydrogenase); format: biochemical; details: amino donor; 50 μM glyoxylate/2-oxoglutarate/pyruvate, 3 μM enzyme, 50 mM Tris pH 8.0, 30°C; degradation direction only
T2 construct: gene AGT2; first 29 residues (signal peptide) of 476 removed; codon-optimised synthetic gene, pET24a, C-terminal His6; E. coli BL21(DE3); Ni-NTA
T2 sequence (Q940M2 30-476): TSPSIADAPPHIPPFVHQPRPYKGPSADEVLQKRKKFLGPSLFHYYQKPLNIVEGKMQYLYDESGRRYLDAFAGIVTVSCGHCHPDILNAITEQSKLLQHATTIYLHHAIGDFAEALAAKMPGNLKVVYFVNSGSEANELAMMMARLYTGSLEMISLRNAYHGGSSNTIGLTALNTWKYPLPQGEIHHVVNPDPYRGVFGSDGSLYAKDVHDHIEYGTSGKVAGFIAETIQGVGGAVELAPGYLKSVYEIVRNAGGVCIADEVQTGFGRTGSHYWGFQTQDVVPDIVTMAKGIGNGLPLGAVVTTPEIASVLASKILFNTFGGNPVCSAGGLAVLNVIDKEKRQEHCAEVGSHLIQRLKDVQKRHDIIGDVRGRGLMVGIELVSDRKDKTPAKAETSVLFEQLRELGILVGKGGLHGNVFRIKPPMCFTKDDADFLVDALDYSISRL

Row | Structure (SMILES) | coupled NADH assay at 340 nm (pyruvate or alanine dehydrogenase) ([1]; amino donor, acceptor not given) | coupled NADH assay at 340 nm (pyruvate dehydrogenase) [2] | coupled NADH assay at 340 nm (pyruvate or alanine dehydrogenase) ([1]; amino donor (positive control enzyme; works in both directions))
1 | NCCC(=O)O [β‐alanine] | PYD4 was also able to use β‐alanine as an amino donor | – | –
2 | C[C@H](N)C(=O)O [L‐alanine] | – | We also detected activity when L‐alanine was used as the amino donor | activity when L‐alanine was used as the amino donor, but unlike PYD4, AGT2 only functions
